Laboratory results published in patent publication US9682928B2 (NeuroPro Therapeutics, Inc., priority 2009, dated 2017).
Entries after “also recorded” stand apart in the source; their conditions may differ.

Columns and labels:
Male Rj: NMRI mice = experiment: Formalin paw test (late phase) in the mouse; assay type: in vivo; conditions: for Antinociception compared to gabapentin (584 μmol/kg; 100 mg/kg): late phase, at highest two doses (NTP-2014, NTP-2024) or highest dose (NTP-2026, Bumetanide)
Method in brief: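 Male NMRI mice received an intraplantar injection of 5% formalin (25 μl) into the left hind paw. Licking of the injected paw was scored at 1-min intervals from 15 to 50 min, blind, with 10 mice per group. Treated groups were compared with vehicle by Mann-Whitney U test; gabapentin 100 mg/kg i.p. served as reference.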

[1] = Diuresis in rat (urine volume, sodium and potassium excretion); assay type: in vivo; conditions: for Diuresis as measured by increased urine output and Na+/K+ excretion: rat, through 8 hours post-dose
Method: (§1) The animals were fasted overnight prior to dosing and had no access to drinking water prior to any pretreatment. Food and water were withheld through the terminal sample collection or for the first 6 hours of blood sample collection, where applicable. Prior to test article administration all animals were pretreated with a single IP dose of PBx. At approximately 5 to 6 minutes prior to dosing all animals received a single oral (PO) gavage dose of 0.9% Sodium Chloride for Injection, USP, at a dose volume of 15 mL/kg. The vehicle, DMSO, and the test articles, NTP-2024 and NTP-2006, were administered via a single IP dose at a dose volume of 1 mL/kg. Cumulative urine volume, sodium excretion, and potassium excretion graphs are illustrated in FIGS. 27, 28, and 29.
as §1, with “Animals” for “The animals”, “PBX.” for “PBx.”, “mL/g.” for “mL/kg.”, “compounds (e.g., NTP-2014)” for “articles, NTP-2024 and NTP-2006,”, “mL/kg.” for “mL/kg. Cumulative urine volume, sodium excretion, and potassium excretion graphs are illustrated in FIGS. 27, 28, and 29.”
as §1, with “Animals” for “The animals”, “0.15” for “15”, “FIG. 27 illustrates cumulative” for “Cumulative”, “volume.” for “volume, sodium excretion, and potassium excretion graphs are illustrated in FIGS. 27, 28, and 29.”
as §1, with “PBX.” for “PBx.”, “FIG. 28 illustrates cumulative” for “Cumulative urine volume,”, “excretion.” for “excretion, and potassium excretion graphs are illustrated in FIGS. 27, 28, and 29.”
as §1, with “PBX.” for “PBx.”, “FIG. 29 illustrates cumulative” for “Cumulative urine volume, sodium excretion, and”, “excretion.” for “excretion graphs are illustrated in FIGS. 27, 28, and 29.”

Male CD-1 mice = experiment: 52° C. warm water tail-flick test (acute nociceptive study); assay type: in vivo, mouse; conditions: for Activity in tail-flick test: all doses starting at 32 mg/kg (NTP-2014) or 56 mg/kg (NTP-2026, NTP-2024); for % Antinociception: A50 not determined
Text: Subjects: Male CD-1 (25-35 g, Charles River) were used for all studies. Mice were housed in groups of five in Plexiglas chambers with food and water available ad libitum. All animals were maintained on a 12 hr light/dark cycle (lights on at 7:00 AM) in a temperature- and humidity-controlled animal colony. The health status of the animals used in this study were examined on arrival. Only animals in good health were acclimatized to laboratory conditions and used in the study. The acclimation period to the vivarium was a minimum of 7 days. All animal experiments were performed under an approved protocol in accordance with institutional guidelines and in accordance with the Guide for the Care and Use of Laboratory Animals as adopted and promulgated by the National Institutes of Health.
Behavioral Testing: Efficacy of the test compounds were assessed using the 52° C. warm water tail-flick test. The latency to the first sign of a rapid tail-flick was taken as the behavioral endpoint (Jannsen, et al. 1963). Each mouse was first tested for baseline latency by immersing its tail in the water and recording the time to response. Mice not responding within 5 seconds were excluded from further testing. Test compounds were then injected and the mice were rested for thermal latencies at 10, 20, 30, 45, 60, 90, 120 and 180 minutes post-injection (if a drug effect dropped below 20% for the group average then the testing was halted for that group). Antinociception was calculated by the following formula: % Antinociception=100×(test latency−control latency)/(10-control latency). A maximum score was assigned (100%) to animals not responding within 10 seconds to avoid tissue damage.
Preparation of Test Materials: NTP-2014 (m.w. 420.52 for free base; lot number: 004JXS047) was dissolved in 0.2% hydroxypropylmethylcellulose (HPMC) in physiological saline to yield final concentrations of between 3.2 and 10 mg/ml (pH ˜7.4). NTP-2024 (m.w. 433.52 for free base; lot number: 024DGM048) was dissolved in 0.2% HPMC in physiological saline to yield final concentrations of between 5.6 and 18 mg/ml (pH ˜7.4). NTP-2026 (m.w. 462.61 for free base; lot number: 002JRA064) was first dissolved in 100% ETOH (10× solution) and then this stock solution was diluted to final concentrations of 5.6-10 mg/ml using 0.2% HPMC in physiological saline (pH ˜7.4). Final ETOH concentration was approximately 10%. Tween 80 (1-2 drops) was added to all solutions to aid in solubilization of compounds.
All groups contained n=8-10 mice.

Rat = experiment: Exploratory Bennett neuropathic pain (rat), plus inhibitor; assay type: in vivo
[2] = i.p. 30 minutes before the test, 50 μmol/kg (NTP-2006 23.9, NTP-2024 21.7, NTP-1007 19.3, NTP-2014 21, NTP-2026 23.1 mg/kg)
[3] = i.p., 250 μmol/kg (NTP-2006 119, NTP-2024 108, NTP-1007 96.5, NTP-2014 105, NTP-2026 116 mg/kg)
[4] = i.p., 500 μmol/kg (NTP-2006 239, NTP-2024 217, NTP-1007 193, NTP-2014 210, NTP-2026 231 mg/kg)

Row | SMILES | Decrease in pain, Formalin Paw Test (Mice) - Late Phase (Male Rj: NMRI mice; at 50, 250, 500 μmol/kg) | Antinociception compared to gabapentin (584 μmol/kg; 100 mg/kg) (Male Rj: NMRI mice) | Excretion of urine, sodium and potassium (FIG. 33) ([1]; bumetanide PO 30 mg/kg + PBx) | Diuresis in rat ([1]; pre-treatment with inhibitor) | Activity in tail-flick test (Male CD-1 mice; mice) | % anti-nociception relative to high dose morphine (Male CD-1 mice; tail-flick test, mice, without behavioral observations) | Licking Score (15 to 50 minutes post-formalin injection) % Change from Control (Male Rj: NMRI mice; [2]) | Licking Score (15 to 50 minutes post-formalin injection) % Change from Control (Male Rj: NMRI mice; [3]) [%] | Licking Score (15 to 50 minutes post-formalin injection) % Change from Control (Male Rj: NMRI mice; [4]) [%] | Activity against tactile allodynia (Rat) | Urine output, sodium excretion and potassium excretion (FIG. 33) ([1]; NTP-2014 at 10, 50 or 100 mg/kg, PBx pretreated) | Diuresis as measured by increased urine output and Na+/K+ excretion [1] | % Antinociception (Male CD-1 mice; 180 mg/kg) [%] | Licking Score % Pain Decrease (Male Rj: NMRI mice; 50 μmol/kg i.p.) [%] | Licking Score % Pain Decrease (Male Rj: NMRI mice; 250 μmol/kg i.p.) [%] | Licking Score % Pain Decrease (Male Rj: NMRI mice; 500 μmol/kg i.p.) [%] | Anti-inflammatory and analgesic effects in formalin paw test (FIG. 16) (Male Rj: NMRI mice; 50, 250, 500 μmole/kg) | Decrease in pain, Formalin Paw Test (Mice) - Late Phase (Male Rj: NMRI mice; at 250, 500 μmol/kg) | % Antinociception (Male CD-1 mice; 56 mg/kg) [%]
1 | CCCCNc1cc(C(=O)O)cc(S(N)(=O)=O)c1Oc1ccccc1 [Bumetanide, reference compound] | Significant decrease in pain at 50 (p < 0.05), 250 (p < 0.01), | 500 (p < 0.001 ) μmol/kg; 18.2, 91.1, 182 mg/kg; better | substantial excretion | diuresis evident | – | – | – | – | – | – | – | – | – | – | – | – | – | – | –
2 | CCCCN(CCCC)c1cc(C(=O)O)cc(S(N)(=O)=O)c1Oc1ccccc1 [NTP-2014, 3-Aminosulfonyl-5-N,N-dibutylamino-4-phenoxybenzoic acid] | Significant decrease in pain at 50 (p < 0.05), 250 | much better than gabapentin (584 μmol/kg; 100 mg/kg) | – | – | effective analgesic effects; also recorded: Significant activity in tail- | nociception equal to high | −38% | −99 | −90 | Significant effects against tactile allodynia | does not differ appreciably from the vehicle control; also recorded: does not increase; also recorded: did not increase | No diuresis as measured by increased urine output and Na+/K+ | – | – | – | – | – | – | –
3 | CCCCNc1cc(C(=O)NN2CCOCC2)cc(S(N)(=O)=O)c1Oc1ccccc1 [NTP-2024, N-Morpholinyl 3-Aminosulfonyl-5-N-butylamino-4-phenoxybenzamide] | – | (p < 0.05) μmol/kg; 108, 217 mg/kg; slightly less | – | – | Significant activity in tail- | – | −1% | −51 | −41 | Dose-related activity against tactile | – | – | ~48 | 1 | 51 | 41 | show anti-inflammatory and analgesic effects | Significant decrease in pain at 250 (p < 0.01), 500 | –
4 | CCCCNc1cc(C(=O)N(C)CCCN(C)C)cc(S(N)(=O)=O)c1Oc1ccccc1 [NTP-2026, N-(3-(Dimethylamino)propyl)-N-methyl 3-Aminosulfonyl-5-N-butylamino-4-phenoxybenzamide] | – | – | – | – | Significant activity in tail- | – | no effects | −49 | −82 | Very low doses tested, no significant | – | No diuresis as measured by increased urine output and Na+/K+ | – | – | – | – | – | Significant decrease in pain at 250 (p < 0.01), 500 | ~25
